According to patent publication US9126060B2, “Cosmetic use of geranylgeranyl-2-propanol” (SEDERMA, priority 2010, dated 2015):

Tests used:
[1] = ORAC test (Oxygen-Radical Absorbance Capacity): fluorescein degradation by peroxyl radicals; type: biochemical; conditions: n = 6
Text: Principle: the ORAC test (“Oxygen-Radical Absorbance Capacity”) measures degradation by the oxidative way of a fluorescent molecule (fluorescein). Degradation of fluorescein by peroxyl radicals generated by AAPH (2,2′-azobis (2-amidinopropane) dichloride) induces a decrease in fluorescence measured by a spectrofluorometer during a degradation kinetic.
An antioxidant protects this fluorescein against this radical degradation. The decrease in fluorescence will be smaller and slower in the presence of the antioxidant than in its absence. The comparison between the parameters of the two kinetics makes it possible to calculate a percentage of protection against free radical degradation.

[2] = Lipidic peroxidation of liposomes by UVA (conjugated dienes at 233 nm); type: biochemical
Text: Principle: Cell membranes are composed of oxidable phospholipids. Using a cell-free model (unsaturated phospholipids based liposomes) and a reproducible oxidative stress (UVA radiation), it is possible to follow spectrophotometrically (at 233 nm) the formation of early by-products of lipoperoxidation that are conjugated dienes. An anti-lipoperoxidant agent can reduce or even eliminate this phenomenon.

human fibroblasts = experiment: Lipidic peroxidation of fibroblast cellular membranes after UVA stress (MDA, TBARS method); type: cell-based; conditions: for MDA concentration: post UVA stress
Protocol: Principle: human fibroblasts are grown to confluence and then placed or not in contact with the GGP for 72 hours. Following this contact, the GGP is removed and the cells are exposed to oxidative stress (UVA). After a further incubation with or without the GGP, malonaldehyde (MDA) is determined by the TBARS method (Thiobarbituric Acid Reactive Substances) and the value obtained divided by the amount of cellular protein.

presenescent fibroblasts = experiment: Mitochondrial membrane potential of presenescent fibroblasts (dye ratio λ520/λ590); type: cell-based; conditions: for Improvement of the respiration potential / Change with regard to non stressed young cells: with oxidative stress; for Change with regard to non stressed young cells: control −100%
Text: It is possible to measure the membrane potential through a specific membrane dye. Depending on the level of the membrane potential, this dye is rather present as monomer (emission fluorescence at 520 nm) or rather in the multimetric form (fluorescence emission at 590 nm). High membrane potential promotes a multimetric form.
The ratio λ520/λ590 varies inversely with the membrane potential. The lower the ratio is, the higher the membrane potential is. The increase in the ratio thus reflects a decrease in membrane potential. The ratio λ520/λ590 for young and proliferating cells is 2.97+/−0.17.
[…] After this period, the membrane potential of half of the cultures was measured.
The other half of the cultures underwent an oxidative stress (hydrogen peroxide) before measuring their membrane potential.

hyaluronic acid = experiment: Hyaluronic acid synthesis in human fibroblasts; type: cell-based; conditions: for hyaluronic acid (AH): 24 hours, n = 5
Protocol: Principle: Human dermal fibroblasts were grown in plate for 24 hours. The cells are then placed in contact or not with GGP for 24 hours. Culture supernatants were collected and assayed for the amount of hyaluronic acid (HA) is then divided by the number of cells present on the layer. TGF-β1 is used as a positive control.

human dermal fibroblasts = experiment: Collagen gel contraction by human dermal fibroblasts cultivated until presenescence; type: cell-based; conditions: for Gel heterogeneity / Gel surface: n = 5
Text: Principle: Proliferative human dermal fibroblasts were cultivated with or without the GGP over several generations to obtain presenescent cells. A constant number of cells from each case was then included in a collagen gel. The contractile capacity of cells was then followed by using photographs. Quantification by image analysis, focused on the intensity of the contraction (gel surface) and the contraction quality (gel heterogeneity).

decorin = experiment: Decorin biosynthesis in fibroblast culture (ELISA); type: cell-based, human; conditions: for Decorin: 3 days, n = 5
Protocol: Principle: Normal human fibroblasts were brought to confluence, then contacted or not with GGP at 3, 5 or 7 ppm for 3 days. After this incubation, decorin content was assayed by ELISA in cell homogenates, and then divided by the number of cells.

tyrosinase = molecular target: T1, tyrosinase (Homo sapiens, UniProt P14679); experiment: Residual tyrosinase activity in human melanocytes; type: cell-based; conditions: for tyrosinase activity: 5 days, n = 4
T1 construct: endogenous in cells; host or cells: human melanocytes
T1 sequence (P14679 19-529): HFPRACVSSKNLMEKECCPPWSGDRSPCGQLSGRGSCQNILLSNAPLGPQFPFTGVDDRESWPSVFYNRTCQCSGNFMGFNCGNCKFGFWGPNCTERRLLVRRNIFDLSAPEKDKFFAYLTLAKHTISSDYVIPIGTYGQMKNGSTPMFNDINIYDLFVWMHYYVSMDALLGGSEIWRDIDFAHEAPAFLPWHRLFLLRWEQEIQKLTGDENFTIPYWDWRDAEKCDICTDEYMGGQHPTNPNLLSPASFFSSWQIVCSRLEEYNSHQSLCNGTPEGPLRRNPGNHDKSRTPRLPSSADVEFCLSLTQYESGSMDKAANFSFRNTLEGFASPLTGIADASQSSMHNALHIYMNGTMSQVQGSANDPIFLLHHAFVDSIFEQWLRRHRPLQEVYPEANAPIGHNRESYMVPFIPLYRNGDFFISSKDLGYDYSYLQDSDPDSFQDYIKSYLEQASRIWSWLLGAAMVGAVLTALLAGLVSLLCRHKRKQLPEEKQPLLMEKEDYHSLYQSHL
Protocol: Principle: Human melanocytes are seeded and placed in contact with the GGP for 5 days. After incubation, the residual tyrosinase activity and total melanin content were measured in cell homogenates, and then divided by the number of cells (melanin) or to the protein amount (tyrosinase).

nidogen 1 = experiment: Nidogen 1 biosynthesis in fibroblast culture (ELISA); type: cell-based, human; conditions: 3 days, n = 5
Protocol: Principle: Normal human fibroblasts were brought to confluence, then placed or not in contact with the GGP, at 1 or 2.5 ppm, for 3 days. After this incubation the nidogen 1 content is determined by ELISA in cell homogenates, and divided by the number of cells.

Compound: CC(C)=CCC/C(C)=C/CC/C(C)=C/CC/C(C)=C/CCC(C)O (stereo not drawn) [GGP, 6,10,14,18-tetramethylnonadeca-5,9,13,17-tetraen-2-ol]
- % of protection ([1]; 10 ppm): 56%
- % of protection ([1]; 50 ppm): 68%
- % of protection ([1]; 200 ppm): 77%
- % of protection ([1]; 400 ppm): 87%
- % of peroxidation inhibition ([2]; 8 ppm): 14%
- % of peroxidation inhibition ([2]; 26 ppm): 24%
- % of peroxidation inhibition ([2]; 80 ppm): 75%
- % Change of MDA vs post-stress control (human fibroblasts; 3 ppm): −20%; p < 0.01
- MDA concentration (human fibroblasts; 3 ppm): 881 +/− 36 nM/mg protein
- % Change of MDA vs post-stress control (human fibroblasts; 5 ppm): −34%; p < 0.01
- MDA concentration (human fibroblasts; 5 ppm): 727 +/− 39 nM/mg protein
- % Change of MDA vs post-stress control (human fibroblasts; 7 ppm): −53%; p < 0.01
- MDA concentration (human fibroblasts; 7 ppm): 515 +/− 11 nM/mg protein
- % of protection of the respiration potential (presenescent fibroblasts; 3 ppm, no stress): +22%; nsd
- ΔΨ loss with regard to non stressed young cells (presenescent fibroblasts; 3 ppm, one week, no stress): 1.11 +/− 0.33
- Improvement of the respiration potential (presenescent fibroblasts; 3 ppm): +35%; p < 0.05
- ΔΨ loss with regard to non stressed young cells (presenescent fibroblasts; 3 ppm, with oxidative stress (hydrogen peroxide)): 3.57 +/− 0.69
- Change with regard to non stressed young cells (presenescent fibroblasts; 3 ppm): −65%
- % of protection of the respiration potential (presenescent fibroblasts; 5 ppm, no stress): +41%; p < 0.01
- ΔΨ loss with regard to non stressed young cells (presenescent fibroblasts; 5 ppm, one week, no stress): 0.84 +/− 0.08
- Improvement of the respiration potential (presenescent fibroblasts; 5 ppm): +63%; p < 0.01
- ΔΨ loss with regard to non stressed young cells (presenescent fibroblasts; 5 ppm, with oxidative stress (hydrogen peroxide)): 2.03 +/− 0.69
- Change with regard to non stressed young cells (presenescent fibroblasts; 5 ppm): −37%
- % of change of hyaluronic acid vs control (hyaluronic acid; 3 ppm): +23%
- hyaluronic acid (AH) (hyaluronic acid; 3 ppm): 5322 +/− 157 ng of AH/10^6 cells
- % of change of hyaluronic acid vs control (hyaluronic acid; 5 ppm): +33%
- hyaluronic acid (AH) (hyaluronic acid; 5 ppm): 5758 +/− 82 ng of AH/10^6 cells
- % of change of hyaluronic acid vs control (hyaluronic acid; 7 ppm): +41%
- hyaluronic acid (AH) (hyaluronic acid; 7 ppm): 6101 +/− 320 ng of AH/10^6 cells
- % of change of hyaluronic acid vs control (hyaluronic acid; 10 ppm): +46%
- hyaluronic acid (AH) (hyaluronic acid; 10 ppm): 6331 +/− 365 ng of AH/10^6 cells
- % change of gel surface vs control (human dermal fibroblasts; 3 ppm): −17.5%; p < 0.01
- Gel heterogeneity (human dermal fibroblasts; 3 ppm): 22.9 +/− 4.1 UA
- Gel surface (human dermal fibroblasts; 3 ppm): 6.12 ± 1.94 cm^2
- % change of gel surface vs control (human dermal fibroblasts; 5 ppm): −21.5%; p < 0.01
- Gel heterogeneity (human dermal fibroblasts; 5 ppm): 21.8 +/− 3.6 UA
- Gel surface (human dermal fibroblasts; 5 ppm): 5.82 ± 1.69 cm^2
- Change (%) of decorin vs control (decorin; 3 ppm): +15%; p < 0.03
- Decorin (decorin; 3 ppm): 47578 +/− 3587 pg/10^6 cell
- Change (%) of decorin vs control (decorin; 5 ppm): +32%; p < 0.01
- Decorin (decorin; 5 ppm): 54419 +/− 4697 pg/10^6 cell
- Change (%) of decorin vs control (decorin; 7 ppm): +41%; p < 0.01
- Decorin (decorin; 7 ppm): 58168 +/− 5912 pg/10^6 cell
- Change (%) of tyrosinase activity vs control (tyrosinase; 1 ppm): −11%; p < 0.05
- tyrosinase activity (tyrosinase; 1 ppm): 6.196 +/− 0.318 U/μg prot
- Change (%) of tyrosinase activity vs control (tyrosinase; 3 ppm): −29%; p < 0.01
- tyrosinase activity (tyrosinase; 3 ppm): 4.956 +/− 0.129 U/μg prot
- Change (%) of tyrosinase activity vs control (tyrosinase; 5 ppm): −49%; p < 0.01
- tyrosinase activity (tyrosinase; 5 ppm): 3.588 +/− 0.248 U/μg prot
- Stimulation % of nidogen 1 biosynthesis (nidogen 1; 1 ppm): +28%
- Stimulation % of nidogen 1 biosynthesis (nidogen 1; 2.5 ppm): +94%
